Entries after “also recorded” stand apart in the source; their conditions may differ.

The target of data set [1] is T1, OCT-2 (Homo sapiens, UniProt O15244).
T1 construct: from tissue; host or cells: patients in vivo (endogenous transporter; serum, plasma and urine markers measured)
T1 sequence (O15244 1-555): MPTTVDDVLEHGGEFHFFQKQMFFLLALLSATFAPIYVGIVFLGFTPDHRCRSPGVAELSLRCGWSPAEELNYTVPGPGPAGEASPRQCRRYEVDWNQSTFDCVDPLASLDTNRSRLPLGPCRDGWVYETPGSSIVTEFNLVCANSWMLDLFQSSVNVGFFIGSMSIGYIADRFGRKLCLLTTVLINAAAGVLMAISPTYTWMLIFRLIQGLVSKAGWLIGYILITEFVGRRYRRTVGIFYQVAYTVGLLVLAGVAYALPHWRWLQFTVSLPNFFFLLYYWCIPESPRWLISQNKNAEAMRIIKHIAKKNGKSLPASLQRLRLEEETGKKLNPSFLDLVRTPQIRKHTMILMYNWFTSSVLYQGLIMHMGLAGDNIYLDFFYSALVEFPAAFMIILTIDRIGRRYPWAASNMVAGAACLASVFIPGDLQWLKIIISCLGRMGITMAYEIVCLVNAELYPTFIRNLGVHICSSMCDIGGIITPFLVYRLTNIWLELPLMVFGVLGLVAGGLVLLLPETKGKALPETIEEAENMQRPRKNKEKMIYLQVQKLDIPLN
Briefly: Renal function markers (creatinine, Cystatin C, KIM1) as on-target OCT-2 inhibition. The class given is in vivo. How it is done:
(§1) The starting dose was 100 mg BID.

A further data set deals with T2, phosphorylated MET (Homo sapiens, UniProt P08581, DEL963-1009).
T2 construct: from tissue; host or cells: paired tumour biopsies (baseline and on-treatment) of an NSCLC patient
Briefly: Paired biopsy analysis, total and phosphorylated MET by immunohistochemistry. The data set is classed as in vivo. As to conditions: one patient, NSCLC with MET exon 14 skipping mutation, 200 mg BID. On the procedure:
(§2) Analysis was performed using PKSolver to define Cmax, trough concentration (Ctrough), AUC∞, AUC0-last, Vd, clearance, elimination half-life (t½), and Tmax of OMO-1.[24] In the paired biopsy analysis, expression of total MET and phosphorylated MET was performed by immunohistochemistry.

For the next data set, the system named is METex14-positive NSCLC. The experiment in a line: Preliminary efficacy by RECIST v1.1, Module 1 Part B cohort 1. The data set is classed as in vivo, human. As to conditions: OMO-1 monotherapy 200 or 250 mg BID. How it is done: as §1
(§3) Safety analyses were descriptive.

For data set [2], the system named is MET-activated tumor models. The following applies: preclinical ref 21; cited from earlier work.
In data set [3] the test system is EGFR mutated NSCLC with acquired MET amplification. The class given is in vivo, human. The following applies: one patient, 200 mg BID with EGFR TKI; led to interruption.
Description: Module 2 (OMO-1 in combination with EGFR TKI) investigated the preliminary efficacy of OMO-1 in patients with activating EGFR mutated NSCLC and an acquired MET amplification after EGFR TKI treatment.
In data set [4] the target is T1, OCT-2. Briefly: Plasma tryptophan and kynurenine levels to explore OCT-2 inhibition. The class given is in vivo. On the procedure:
as §1

The subject of data set [5] is organic cation transporter 2 (OCT-2). The arrangement: method as in PMID 14576340. As to conditions: cited from earlier work.
Data set [6] concerns MET amplified NSCLC or other MET positive solid tumors. The experiment in a line: Preliminary efficacy by RECIST v1.1, Module 1 Part B cohort 2 (MET basket). As to conditions: 5/5 patients, 200 or 250 mg BID. The class given is in vivo, human. On the procedure:
as §1, §3

On the set-up of data set [7]: method as in doi:10.1158/1538-7445.am2015-ct309. The following applies: healthy human volunteers ref 26; cited from earlier work.
Data set [8] can be described thus: Pharmacokinetics of OMO-1 in plasma, Module 1 Part A. The data set is classed as in vivo, human. On the procedure: as §1, §2

In the case of `FC(F)(c1ccc2ncccc2c1)c1nnc2ccc(-c3ccncc3)nn12` [OMO-1], at OCT-2 [1] (monotherapy OMO-1), the “cystatin C and KIM-1, additional markers for renal function” value is on record as “did also not identify any significant renal function issues”. Moreover, the “overall mean creatinine levels” value at OCT-2 [1] (throughout the study) is recorded as “within the normal ranges”. In addition, at phosphorylated MET, the “phosphorylated MET in on-treatment biopsy” value is listed as “near-complete inhibition” and the “total MET levels in on-treatment biopsy” value is “without affecting total MET levels”. In addition, in the data set on METex14-positive NSCLC, the “clinical benefit duration of at least 8 weeks” value is recorded as 5/10. For the same compound, in the data set with METex14-positive NSCLC (RECIST v.1.1), the partial response entry is listed as “No patients; also recorded: no partial response”. The tumor growth entry in [2] is on record as “complete inhibition of tumor growth”. Besides, the “serum Cystatin C increase from baseline” value in data set [3] is listed as > 1.5 fold. For the same compound, the median kynurenin level at OCT-2 [4] (8 h post-dose, IQR 396-559, pre-dose 509 ng/mL, P = .57) was 471 ng/mL. Also, the mean kyn/trp ratio at OCT-2 [4] (8 h post-dose, pre-dose 57, P < .001) is reported as 49. In addition, at OCT-2 [4] (cycle 1 day 1, 8 h post-dose, pre-dose 9475 ng/mL, P = .014, 30 patients Module 1), the “mean tryptophan plasma level” value was 10 605 ng/mL. Further, on OCT-2 [4] (in vivo), the “changes in plasma tryptophan levels and kyn/trp ratio, dependence on dose or Cmax” value is recorded as “not dose or Cmax dependent”. The “inhibition of OCT-2” value in data set [5] is “potent inhibitor”. Further, in data set [6], the clinical benefit entry was “No clinical benefit of any length; also recorded: no clinical efficacy”. In data set [7], the renal toxicity result is “no renal toxicity was observed”. Besides, in [8] (100 to 400 mg BID), the “plasma exposure as measured by AUC(0-8 h), dose proportionality” value was “dose-proportional without accumulation”. Moreover, in data set [8] (RP2D of 250 mg BID), the “AUC(0-8 h)” value came out at 5684 ng·h/mL and the Cmax is 1372 ng/mL. The T½ in [8] (oral, patients) lay within 2.5 to 3 h. Also, the “median Tmax” value in data set [8] (range across the dose escalation cohorts, second daily dose 4-5 h after first) was in the range of 5 to 7.8 h.
